Experimental data taken from patent publication US6767741B1, “Metal binding compounds and their use in cell culture medium compositions” (Invitrogen Corporation, priority 1999, dated 2004).

Experiments:
Format in all cases: cell-based
293 cells = test: Growth of 293 cells in transferrin-free 293 SFM with metal binding compounds; conditions: third passage, control = 5 μg/mL human holo-transferrin, duplicate cultures
Procedure: Semi-confluent adherent cultures of 293 Cells (ATCC, CRL 1573) are readily adapted to suspension culture. The cells are first detached with a solution of Trypsin-EDTA (0.05% Trypsin, 0.53 mM Na4EDTA), and then resuspended in conventional medium supplemented with 10% FBS to inhibit the trypsin. The resuspended cells are centrifuged at 200×g for five minutes. The cell pellet is resuspended in 293 SFM (available from Life Technologies, Rockville, Md.) the formulation of which is described in WO 98/08934 which is specifically incorporated herein by reference. Alternatively, the cells may be detached with Versene (Na4EDTA, 0.53 mM) and resuspended in 293 SFM.
The initial seeding density of the 293 cells after conversion to suspension culture is 1×10^6 cells/mL. The cells are shaken on a rotary shaker at 150 rpm in a 37° C. incubator equilibrated with 8% CO2-92% air. When the cells reach a density of 1.5×10^6 cells/mL they are diluted with 293 SFM to a density of 3.0×10^5 cells/mL. Because 293 cells have a tendency to aggregate, the cells may be vortexed vigorously for approximately 45 seconds to obtain a predominantly single cell suspension at the time of passaging and counting. After several passages in suspension culture, the maximum achievable density may be determined.
The ability of metal binding compounds to support cellular growth was evaluated using 293 cells maintained in 293 SFM (Life Technologies, Rockville, Md.) without transferrin or metal binding compound. Stock cultures containing 5 μg/mL human holo-transferrin were prepared in 293 SFM. For metal binding compound evaluation, 293 cells were established in 125 mL shaker flasks at an initial viable seeding density of 2×10^5 cells/mL in a final volume of 20 mL. All cultures were maintained at 37° C. in humidified air containing 8% CO2. To eliminate transferrin carry-over effects, cells were subcultured at 4 day intervals for a total of three passages. At each subculturing, cells were seeded at a density of 2×10^5 cells/mL. Positive control cultures contained 5 μg/mL human holo-transferrin while negative control cultures were established in the absence of either transferrin or metal binding compound. Metal binding compound stocks were prepared at 0.1M-0.2M in ddH2O and solubilized when necessary using 5N NaOH or HCl. Iron complexes were established using 0.2M metal binding compound and iron stocks mixed 1:1 (v/v) and incubated for 5-10 minutes at 22° C. All solutions containing metal binding compounds were filter sterilized using a 0.22 μm Millex-GV filter prior to addition to transferrin and serum-free media.
In most cases, metal binding compounds were evaluated either alone or in combination with ferric chloride or ferrous sulfate at 25 μM, 50 μM and 100 μM. When used in combination, the metal binding compounds were used in equimolar concentration with iron ions. Values in the table represent the mean percentage of control growth for duplicate cultures determined at the third passage.
(§1) When added to the medium formulation un-complexed, the metal binding compound is listed alone, when added as a complex with a transition metal, the source of the transition metal is listed with the metal binding compound.

Sp2/0 cells = test: Growth of Sp2/0 cells in transferrin-free CD Hybridoma medium with metal binding compounds; conditions: third passage, control = 5 μg/mL human holo-transferrin, duplicate cultures
Procedure: The ability of iron metal binding compounds to support cellular growth in the absence of transferrin was evaluated using Sp2/0 cells maintained in CD Hybridoma medium (Life Technologies, Rockville, Md.). Stock cultures containing 5 μg/mL human holo-transferrin were prepared in CD Hybridoma medium. For metal binding compound evaluation, Sp2/0 cells were established at an initial viable cell density of 0.5×10^5 cells/mL in stationary culture using 75 cm^2 tissue culture flasks in a final volume of 20 mL. All cultures were maintained at 37° C. in humidified air containing 8% CO2. To eliminate transferrin carry-over effects, cells were subcultured at the same seeding density at 4 day intervals for a total of three passages. Positive control cultures contained 5 μg/mL human holotransferrin while negative control cultures were established in the absence of either transferrin or metal binding compound. Metal binding compound stocks were prepared at 0.1M-0.2M in ddH2O and solubilized when necessary using 5N NaOH or HCl. Iron complexes were established using 0.2M metal binding compound and iron stocks mixed 1:1 (v/v) and incubated for 5-10 minutes at 22° C. All solutions containing metal binding compounds were filter sterilized using a 0.22 μm Millex-GV filter prior to addition to transferrin and serum-free media.
(§2) In most cases, metal binding compounds were evaluated either alone or in combination with ferric chloride or ferrous sulfate at 25 μM, 50 μM and 100 μM. Values in the table represent the mean percentage of control growth for duplicate cultures determined at the third passage.
as §1

CHO cells = test: Growth of CHO cells in transferrin-free CD CHO medium with metal binding compounds; conditions: third passage, control = 5 μg/mL human holo-transferrin, duplicate cultures
Procedure: The ability of metal binding compounds to support cellular growth in the absence of transferrin was evaluated using CHO cells maintained in CD CHO medium (Life Technologies, Rockville, Md., the formulation of which is described in WO 98/08934). Stock cultures containing 5 μg/mL human holo-transferrin were prepared in CD CHO medium. For metal binding compound evaluation, CHO cells were established in 125 mL shaker flasks at an initial viable seeding density of 1×10^5 cells/mL in a final volume of 20 mL. All cultures were maintained at 37° C. in humidified air containing 8% CO2. To eliminate transferrin carry-over effects, cells were subcultured at 4 day intervals for a total of three passages. Positive control cultures contained 5 μg/mL human holo-transferrin while negative control cultures were established in the absence of either transferrin or metal binding compound. Metal binding compound stocks were prepared at 0.1M-0.2M in ddH2O and solubilized when necessary using 5N NaOH or HCl. Iron complexes were established using 0.2M metal binding compound and iron stocks mixed 1:1 (v/v) and incubated for 5-10 minutes at 22° C. All solutions containing metal binding compounds were filter sterilized using a 0.22 μm Millex-GV filter prior to addition to transferrin and serum-free media.
as §2
as §1, with “The ability of various metal binding compounds to substitute for transferrin in the culture of CHO cells was determined. When” for “When”

mammalian cells = test: Replacement of transferrin as iron carrier in culture media (general statements); conditions: statement in words
Source text: By “compatible ingredients” is also meant those media nutrients which can be maintained together in solution and form a “stable” combination. […] Ingredients are also considered “stable” if degradation cannot be detected or when degradation occurs at a slower rate when compared to decomposition of the same ingredient in a 1×cell culture media formulation. For example, in 1×media formulations glutamine is known to degrade into pyrolidone carboxylic acid and ammonia. Glutamine in combination with divalent cations are considered “compatible ingredients” since little or no decomposition of the glutamine can be detected over time in solutions or combinations in which both glutamine and divalent cations are present. See U.S. Pat. No. 5,474,931.
The metal-binding compounds used in accordance with the present invention may be obtained commercially (e.g., from Sigma,St. Louis, Mo. and other well-known commercial sources), or may be prepared synthetically according to the guidance provided by the technical and patent publications referenced herein, the disclosures of which are incorporated herein by reference in their entireties.

Compound | mean percentage of control growth (293 cells; 25 μM) [%] | mean percentage of control growth (293 cells; 50 μM) [%] | mean percentage of control growth (293 cells; 100 μM) [%] | mean percentage of control growth (Sp2/0 cells; 25 μM) [%] | mean percentage of control growth (Sp2/0 cells; 50 μM) [%] | mean percentage of control growth (Sp2/0 cells; 100 μM) [%] | mean percentage of control growth (CHO cells; 25 μM) [%] | mean percentage of control growth (CHO cells; 50 μM) [%] | mean percentage of control growth (CHO cells; 100 μM) [%] | ability to replace transferrin as iron carrier in culture media (mammalian cells)
O=S(=O)([O-])[O-].[Fe+2] [Ferrous Sulfate, reference compound] | 71 | 60 | 41 | 91 | 103 | 94 | 88 | 79 | 38 | –
NC(=O)CCC(N)C(=O)O.[Cl][Fe]([Cl])[Cl] (centres unmarked) [Glutamine · Ferric Chloride] | – | – | – | 36 | 55 | 65 | – | – | – | can be substituted for transferrin
O=C(O)CN(CC(=O)O)CC(=O)O.[Cl][Fe]([Cl])[Cl] [Nitriloacetic Acid · Ferric Chloride] | 100 | 118 | 74 | 88 | 87 | 70 | 127 | 107 | 107 | –
NC(CO)C(=O)NO.[Cl][Fe]([Cl])[Cl] (centres unmarked) [Serine Hydroxamate · Ferric Chloride] | 68 | 65 | 51 | 46 | 66 | 62 | 106 | 121 | 124 | –
OC[C@@H](O)[C@@H](O)[C@H](O)[C@@H](O)CO [sorbitol] | – | – | – | – | – | – | – | – | – | used successfully to replace transferrin
Ferrous Gluconate · Ascorbic Acid Phosphate | 86 | 109 | 101 | 92 | 94 | 93 | 91 | 61 | 28 | –
